Data taken from patent US11331299B2, “Medicinal use of serrulatane diterpenes” (The University of Sydney, priority 2016, dated 2022).
Like-named read-outs stand apart in the source and are kept apart here.

Tested on: 280 human cancer cell lines
Assay: OncoPanel cell proliferation assay (10-day)
Assay type: cell-based
Conditions: Homo sapiens; for IC50: read-out: Cell Count IC50; for EC50: read-out: Cell Count EC50
[1] = SW872, SW872, Soft Tissue - Sarcoma
[2] = SW 954, SW954, Female GU - Vulva
[3] = SW982, SW982, Soft Tissue - Sarcoma
[4] = SW1353, SW1353, Soft Tissue - Osteosarcoma
[5] = TE 125.T, Soft Tissue - Sarcoma
[6] = TE 381.T, Soft Tissue - Sarcoma
[7] = U2OS, Soft Tissue - Osteosarcoma
[8] = U-118-MG, U-118 MG, CNS - Glioma
[9] = VA-ES-BJ, Soft Tissue - Sarcoma
[10] = WM 266-4, WM-266-4, Skin (Melanoma)

`CC(C)=CCC[C@H](C)[C@@H]1CC[C@@H](C)c2c1cc(C)c(O)c2O` [Compound 4, 7,8-dihydroxyserrulat-14-ene] was tested, and the GI50 (SW837, SW837, Colon, read-out: Cell Count GI50) was 18.7 µM, the IC50 (SW837, SW837, Colon) was 18.9 µM and the EC50 [1] was 4.39 µM. For the same compound, the GI50 (SW872, SW872, Soft Tissue - Sarcoma, read-out: Cell Count GI50) was 4.38 µM, the IC50 [1] was 4.39 µM and the EC50 (SW900, SW900, Lung - SCLC) was 23.3 µM. For the same compound, the GI50 (SW900, SW900, Lung - SCLC, read-out: Cell Count GI50) was 23.1 µM, the IC50 (SW900, SW900, Lung - SCLC) was 23.3 µM and the EC50 (SW948, SW948, Colon) was 29.7 µM. It also gave a GI50 (SW948, SW948, Colon, read-out: Cell Count GI50) greater than 30 µM, an IC50 (SW948, SW948, Colon) greater than 30 µM and an EC50 [2] of 21.7 µM. For the same compound, the GI50 (SW 954, SW954, Female GU - Vulva, read-out: Cell Count GI50) was 21.6 µM, the IC50 [2] was 21.7 µM and the EC50 [3] was 7.29 µM. The GI50 (SW982, SW982, Soft Tissue - Sarcoma, read-out: Cell Count GI50) was 7.26 µM, the IC50 [3] was 7.3 µM and the EC50 (SW1088, SW1088, CNS - Glioma) was 8.77 µM. The GI50 (SW1088, SW1088, CNS - Glioma, read-out: Cell Count GI50) was 8.69 µM, the IC50 (SW1088, SW1088, CNS - Glioma) was 8.77 µM and the EC50 [4] was 4.15 µM. It also gave a GI50 (SW1353, SW1353, Soft Tissue - Osteosarcoma, read-out: Cell Count GI50) of 4.14 µM, an IC50 [4] of 4.15 µM and an EC50 (SW1417, SW1417, Colon) greater than 30 µM. It also gave a GI50 (SW1417, SW1417, Colon, read-out: Cell Count GI50) of 29.3 µM, an IC50 (SW1417, SW1417, Colon) greater than 30 µM and an EC50 (SW1463, SW1463, Colon) of 29.4 µM. The GI50 (SW1463, SW1463, Colon, read-out: Cell Count GI50) was 29.5 µM, the IC50 (SW1463, SW1463, Colon) was 29.6 µM and the EC50 (SW1783, SW1783, CNS - Glioma) was 12.3 µM. The GI50 (SW1783, SW1783, CNS - Glioma, read-out: Cell Count GI50) was 12.1 µM, the IC50 (SW1783, SW1783, CNS - Glioma) was 12.3 µM and the EC50 (SW-403, SW403, Colon) was greater than 30 µM. For the same compound, the GI50 (SW-403, SW403, Colon, read-out: Cell Count GI50) was greater than 30 µM, the IC50 (SW-403, SW403, Colon) was greater than 30 µM and the EC50 (SW-620, SW620, Colon) was 11.3 µM. For the same compound, the GI50 (SW-620, SW620, Colon, read-out: Cell Count GI50) was 11.3 µM, the IC50 (SW-620, SW620, Colon) was 11.3 µM and the EC50 (SiHa, Female GU - Cervix) was 11.3 µM. The GI50 (SiHa, Female GU - Cervix, read-out: Cell Count GI50) was 13.2 µM, the IC50 (SiHa, Female GU - Cervix) was 13.5 µM and the EC50 (T24, Bladder) was 12.2 µM. The GI50 (T24, Bladder, read-out: Cell Count GI50) was 12.2 µM, the IC50 (T24, Bladder) was 12.2 µM and the EC50 (T47D, Breast) was 3.28 µM. For the same compound, the GI50 (T47D, Breast, read-out: Cell Count GI50) was 2.92 µM, the IC50 (T47D, Breast) was 3.28 µM and the EC50 (T98G, CNS - Glioma) was 24.5 µM. The GI50 (T98G, CNS - Glioma, read-out: Cell Count GI50) was 24.5 µM, the IC50 (T98G, CNS - Glioma) was 24.5 µM and the EC50 (TCC-SUP, TCCSUP, Bladder) was 8.91 µM. The GI50 (TCC-SUP, TCCSUP, Bladder, read-out: Cell Count GI50) was 8.67 µM, the IC50 (TCC-SUP, TCCSUP, Bladder) was 8.91 µM and the EC50 [5] was 23.6 µM. It also gave a GI50 (TE 125.T, Soft Tissue - Sarcoma, read-out: Cell Count GI50) of 17 µM, an IC50 [5] of 23.6 µM and an EC50 [6] of 6.28 µM. For the same compound, the GI50 (TE 381.T, Soft Tissue - Sarcoma, read-out: Cell Count GI50) was 6.08 µM, the IC50 [6] was 6.28 µM and the EC50 (TF-1, Leukemia) was 6.57 µM. The GI50 (TF-1, Leukemia, read-out: Cell Count GI50) was 6.26 µM, the IC50 (TF-1, Leukemia) was 6.57 µM and the EC50 (THP-1, Thp1, Leukemia) was 12 µM. The GI50 (THP-1, Thp1, Leukemia, read-out: Cell Count GI50) was 11.9 µM, the IC50 (THP-1, Thp1, Leukemia) was 12 µM and the EC50 (TUR, Lymphoma) was 8.98 µM. For the same compound, the GI50 (TUR, Lymphoma, read-out: Cell Count GI50) was 8.98 µM, the IC50 (TUR, Lymphoma) was 8.98 µM and the EC50 [7] was 4.21 µM. It also gave a GI50 (U2OS, Soft Tissue - Osteosarcoma, read-out: Cell Count GI50) of 4.2 µM, an IC50 [7] of 4.21 µM and an EC50 (U138-MG, U-138MG, CNS - Glioma) of 25 µM. For the same compound, the GI50 (U138-MG, U-138MG, CNS - Glioma, read-out: Cell Count GI50) was 24.9 µM, the IC50 (U138-MG, U-138MG, CNS - Glioma) was 25 µM and the EC50 (U266B1, Myeloma) was 10.1 µM. The GI50 (U266B1, Myeloma, read-out: Cell Count GI50) was 9.81 µM, the IC50 (U266B1, Myeloma) was 10.1 µM and the EC50 (U-87 MG, CNS - Glioma) was 13.8 µM. It also gave a GI50 (U-87 MG, CNS - Glioma, read-out: Cell Count GI50) of 13.6 µM, an IC50 (U-87 MG, CNS - Glioma) of 13.8 µM and an EC50 [8] of 13.9 µM. For the same compound, the GI50 (U-118-MG, U-118 MG, CNS - Glioma, read-out: Cell Count GI50) was 13.6 µM, the IC50 [8] was 13.9 µM and the EC50 (UMUC3, UM-UC-3, Bladder) was 3.83 µM. For the same compound, the GI50 (UMUC3, UM-UC-3, Bladder, read-out: Cell Count GI50) was 3.82 µM, the IC50 (UMUC3, UM-UC-3, Bladder) was 3.83 µM and the EC50 [9] was 15.2 µM. For the same compound, the GI50 (VA-ES-BJ, Soft Tissue - Sarcoma, read-out: Cell Count GI50) was 15 µM, the IC50 [9] was 15.2 µM and the EC50 [10] was 10.9 µM. For the same compound, the GI50 (WM 266-4, WM-266-4, Skin (Melanoma), read-out: Cell Count GI50) was 10.8 µM, the IC50 [10] was 10.9 µM and the EC50 (WiDr, Colon) was 12.8 µM. It also gave a GI50 (WiDr, Colon, read-out: Cell Count GI50) of 12.8 µM, an IC50 (WiDr, Colon) of 12.8 µM and an EC50 (Y79, Eye) of 5.65 µM. The GI50 (Y79, Eye, read-out: Cell Count GI50) was 5.34 µM, the IC50 (Y79, Eye) was 5.65 µM and the EC50 (YAPC, Pancreas) was 18 µM. It also gave a GI50 (YAPC, Pancreas, read-out: Cell Count GI50) of 18.2 µM, an IC50 (YAPC, Pancreas) of 18.2 µM and a GI50 (strong: Daudi, DOHH-2, GA-10, L-428, ST486, MX1, NALM-6, T47D, CEM-C1, A-673, read-out: GI50) of 1.23 to 2.92 µM.
